Experimental data taken from patent US9958439B2, “Carbohydrate detection” (RICHTER LIFE SCIENCE DEVELOPMENT AB, priority 2012, dated 2018).
Read-outs that look alike come from different tables or passages of the source.

Legend:
[1] = for RFU change (Correlation analysis) / RFU change (Signal deviation with increasing [Carbohydrate]) / λmax change: 3 μM probe; for RFU change (Correlation analysis): probe-specific excitation λ, emission 545 nm; for RFU change (Signal deviation with increasing [Carbohydrate]) / λmax change: spectral analysis, Excitation 300-500, Emission 545; for carbohydrate can be detected and/or differentiated by the LCO: conclusion from change in signal magnitude and/or shift in λmax; for Gradient Parameters (gradient of regression line) / Linear relationship / Quality of Gradient: linear regression
Method in brief: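 Each LCO probe at 3 μM was added to two-fold serial dilutions of carbohydrate in dH2O (10–0.039 mg/ml for β-1,3-glucan, cellulose, chitin; 5–0.019 mg/ml for the others), run in triplicate. Excitation spectra were scanned 300–500 nm with emission at 545 nm. Detection was a reproducible λmax and/or RFU shift versus negative control, with linear regression of RFU against concentration.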

[2] = Method in brief: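 LCO probes (3 μM) were added to serial two-fold dilutions of carbohydrate suspensions in dH2O, with excitation scanned 300–500 nm and emission at 545 nm. Detection was a reproducible λmax and/or RFU change versus no-carbohydrate control. RFU was regressed linearly against concentration at the λmax or the lowest-background excitation.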
[3] = remark: listed apart in the source
Method in brief: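 LCO probes at 3 μM mixed with serial two-fold carbohydrate dilutions in water (10–0.039 or 5–0.019 mg/ml), run in triplicate. Excitation scanned 300–500 nm with emission at 545 nm; detection based on reproducible λmax or RFU shift against the no-carbohydrate control, with linear regression of RFU on concentration.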

[4] = for RFU change (Correlation analysis): probe-specific excitation λ, emission 545 nm
Method in brief: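 LCO probes at 3 μM mixed with serial two-fold dilutions of carbohydrate in dH2O (10–0.039 or 5–0.019 mg/ml, depending on carbohydrate), in triplicate. Excitation scanned 300–500 nm or fixed per probe (λmax or lowest background), emission at 545 nm. Detection taken as reproducible λmax/RFU shift vs no-carbohydrate control; RFU regressed linearly on concentration.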

[5] = for RFU change (Correlation analysis) / RFU change (Signal deviation with increasing [Carbohydrate]) / λmax change: 3 μM probe; for RFU change (Correlation analysis): probe-specific excitation λ, emission 545 nm; for RFU change (Signal deviation with increasing [Carbohydrate]) / λmax change: spectral analysis, Excitation 300-500, Emission 545
Method in brief: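 LCO probes at 3 μM mixed with serial twofold carbohydrate dilutions in dH2O (10–0.039 or 5–0.019 mg/ml, depending on carbohydrate). Excitation scanned 300–500 nm, emission read at 545 nm; detection defined as reproducible shift in λmax and/or RFU relative to negative control, with linear regression of RFU against concentration.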

[6] = remark: listed apart in the source
Method in brief: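 3 μM of each LCO probe was added to serial two-fold carbohydrate dilutions in water (10–0.039 or 5–0.019 mg/ml). Excitation spectra were scanned 300–500 nm with emission at 545 nm, in triplicate. Detection was defined as a reproducible shift in λmax and/or RFU versus negative control, with linear regression of RFU against concentration.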

[7] = β-1,3-glucan concentration vs RFU
[8] = Sodium alginate 5-0.019 mg/ml, 3 μM probe, spectral analysis, Excitation 300-500, Emission 545
[9] = sodium alginate concentration vs RFU, linear regression
[10] = glucose concentration vs RFU, linear regression
[11] = Cellulobiose 5-0.019 mg/ml, 3 μM probe, spectral analysis, Excitation 300-500, Emission 545
[12] = amylose concentration vs RFU, linear regression
[13] = cellulobiose concentration vs RFU, linear regression
[14] = glycogen concentration vs RFU, linear regression
[15] = heparin concentration vs RFU, linear regression
[16] = Chondroitin Sulfate A 5-0.019 mg/ml, 3 μM probe, spectral analysis, Excitation 300-500, Emission 545
[17] = Chondroitin Sulfate A concentration vs RFU, linear regression

Cl.Cl.NCCc1cc(-c2cccs2)sc1-c1ccc(-c2sc(-c3cccs3)cc2CCN)s1 [pHTEA, penta Hydrogen Thiophene Ethanol Amine]
RFU change (Correlation analysis) ([1]; Cellulose 10-[…]): Increase
RFU change (Signal deviation with increasing [Carbohydrate]) ([1]; Cellulose 10-[…]): Increase
λmax change ([1]; Cellulose 10-[…]): Redshift
carbohydrate can be detected and/or differentiated by the LCO ([1]; Cellulose): can be detected and/or differentiated
RFU change (Correlation analysis) ([1]; Chitin 10-[…]): Decreases
RFU change (Signal deviation with increasing [Carbohydrate]) ([1]; Chitin 10-[…]): Decrease
λmax change ([1]; Chitin 10-[…]): Redshift
carbohydrate can be detected and/or differentiated by the LCO ([1]; Chitin): can be detected and/or differentiated
Gradient Parameters (gradient of regression line) ([1]; cellulose concentration vs RFU): 6001 ± 1187
Linear relationship ([1]; cellulose concentration vs RFU): Significant
Quality of Gradient ([1]; cellulose concentration vs RFU): Positive
Gradient Parameters (gradient of regression line) ([1]; chitin concentration vs RFU): −9030 ± 110.1
Linear relationship ([1]; chitin concentration vs RFU): Significant
Quality of Gradient ([1]; chitin concentration vs RFU): Negative
Sensitivity ([1]; to cellulose): Yes
Sensitivity ([1]; to chitin): Yes
Sensitivity ([1]; to β-1,3-glucan): Yes
carbohydrate can be detected and/or differentiated by the LCO ([1]; β-1,3-Glucan): can be detected and/or differentiated
RFU change (Correlation analysis) ([1]; β-1,3-glucan 10-[…]): Decrease
RFU change (Signal deviation with increasing [Carbohydrate]) ([1]; β-1,3-glucan 10-[…]): Decrease
λmax change ([1]; β-1,3-glucan 10-[…]): Redshift
Gradient Parameters (gradient of regression line) [1, 7]: −664.6 ± 206.2
Quality of Gradient [1, 7]: Negative
RFU change (Correlation analysis) ([2]; Sodium alginate 5-0.019 mg/ml, 3 μM probe, probe-specific excitation λ, emission 545 nm): Increases
RFU change (Signal deviation with increasing [Carbohydrate]) [2, 8]: Increases
λmax change [2, 8]: Redshift
carbohydrate can be detected and/or differentiated by the LCO ([2]; Sodium alginate, conclusion from change in signal magnitude and/or shift in λmax): can be detected and/or differentiated
Gradient Parameters (gradient of regression line) [2, 9]: 832.4 ± 174.5
Linear relationship [2, 9]: Significant
Quality of Gradient [2, 9]: Positive
Sensitivity ([2]; to sodium alginate): Yes
RFU change (Correlation analysis) ([3]; Glucose 5-0.019 mg/ml, 3 μM probe, probe-specific excitation λ, emission 545 nm): Unclear
RFU change (Signal deviation with increasing [Carbohydrate]) ([3]; Glucose 5-0.019 mg/ml, 3 μM probe, spectral analysis, Excitation 300-500, Emission 545): Increases
Gradient Parameters (gradient of regression line) [3, 10]: −67.4 ± 37.2
Quality of Gradient [3, 10]: Horizontal
Sensitivity ([3]; to glucose): No
RFU change (Correlation analysis) ([4]; Amylose 5-0.019 mg/ml, 3 μM probe): Decreases
RFU change (Signal deviation with increasing [Carbohydrate]) ([4]; Amylose 5-0.019 mg/ml, 3 μM probe, spectral analysis, Excitation 300-500, Emission 545): Decreases
carbohydrate can be detected and/or differentiated by the LCO ([4]; Amylose, conclusion from change in signal magnitude and/or shift in λmax): can be detected and/or differentiated
RFU change (Correlation analysis) ([4]; Cellulobiose 5-0.019 mg/ml, 3 μM probe): Unclear
RFU change (Signal deviation with increasing [Carbohydrate]) [4, 11]: Unclear
λmax change [4, 11]: No change
Gradient Parameters (gradient of regression line) [4, 12]: −6680 ± 1421
Linear relationship [4, 12]: Significant
Quality of Gradient [4, 12]: Negative
Gradient Parameters (gradient of regression line) [4, 13]: 39.5 ± 66.5
Quality of Gradient [4, 13]: Horizontal
Sensitivity ([4]; to amylose): Yes
Sensitivity ([4]; to cellulobiose): No
RFU change (Correlation analysis) ([5]; Glycogen 5-0.019 mg/ml): Decreases
RFU change (Signal deviation with increasing [Carbohydrate]) ([5]; Glycogen 5-0.019 mg/ml): Decreases
λmax change ([5]; Glycogen 5-0.019 mg/ml): Redshift
carbohydrate can be detected and/or differentiated by the LCO ([5]; Glycogen, conclusion from change in signal magnitude and/or shift in λmax): can be detected and/or differentiated
RFU change (Correlation analysis) ([5]; Heparin 5-0.019 mg/ml): Unclear
RFU change (Signal deviation with increasing [Carbohydrate]) ([5]; Heparin 5-0.019 mg/ml): Decreases
λmax change ([5]; Heparin 5-0.019 mg/ml): Redshift
Gradient Parameters (gradient of regression line) [5, 14]: −451 ± 328
Quality of Gradient [5, 14]: Negative
Gradient Parameters (gradient of regression line) [5, 15]: −109.3 ± 248
Linear relationship [5, 15]: Not Significant
Quality of Gradient [5, 15]: Horizontal
Sensitivity ([5]; to glycogen): Yes
Sensitivity ([5]; to heparin): No
RFU change (Correlation analysis) ([6]; Chondroitin Sulfate A 5-0.019 mg/ml, 3 μM probe, probe-specific excitation λ, emission 545 nm): Increases
RFU change (Signal deviation with increasing [Carbohydrate]) [6, 16]: Increases
λmax change [6, 16]: Redshift
Gradient Parameters (gradient of regression line) [6, 17]: 5989 ± 727
Linear relationship [6, 17]: Significant
Quality of Gradient [6, 17]: Positive
carbohydrate can be detected and/or differentiated by the LCO ([6]; Chondroitin sulfate A, conclusion from change in signal magnitude and/or shift in λmax): can be detected and/or differentiated
Sensitivity ([6]; to Chondroitin Sulfate A): Yes
